From patent US12448393B2, “Use of novel compound, for preventing, improving or treating amyotrophic lateral sclerosis” (PRG S&TECH INC., priority 2019, dated 2025) come the findings set out here.

Data set [1] can be described thus: Pharmacokinetics (PK) analysis. It is filed as in vivo. The conditions noted are these: FIG. 8E.
A further data set has as its target T1, SOD1-G93A (Homo sapiens, UniProt P00441, G94A).
T1 construct: GST (TEV site) (N); made in house; host or cells: Escherichia coli BL21 (DE3)
Description: Dot blot analysis of recombinant SOD1 reacted with compound. It is filed as biochemical. The conditions noted are these: FIG. 5F. The method, then:
To prepare recombinant proteins, human SOD1 (WT, A4V, G37R, G85R, G93A) was added to EcoRI and HindIII sites of pGEX-TEV vector, an improved vector made by adding a TEV protease cleavage site to pGEX-4T1 (Invitrogen). The recombinant proteins were expressed as GST-fusion proteins in Escherichia coli (E. coli) strain BL21 (DE3). The proteins were purified by glutathione-affinity chromatography.
To detect misfolded SOD1 expression, cells transfected with SOD1 vector were treated with the compounds for 24 hours. After reaction, the cells were lysed with a lysis buffer without surfactant, and then cell lysate was fixed on a nitrocellulose membrane using a Bio-Dot SF Microfiltration apparatus (Bio-Rad Laboratories, Hercules, CA). In the case of peptide reaction, SOD1 recombinant proteins were reacted with the compounds for 1 hour, and then samples were loaded onto membrane. Each membrane was washed with TBS and blocked with 3% skim milk to prevent non specific reaction. After blocking, the membrane was reacted with the misfolded SOD1 or Actin antibody (1:8,000 in TBST including 1% skim milk) for 30 minutes, and then with a secondary antibody (goat anti-mouse IgG-horseradish peroxidase, 1:50,000 in 1% skim milk blocking buffer) for 30 minutes. Antibodies reacted to proteins were detected by ECL and X-ray film exposure. Actin was used as a loading control.

In data set [2] the test system is SOD1^G93A-Tg mice. In words: In vivo drug treatment of ALS model mice (grip strength, behaviour, histology, survival). The arrangement: species or system mouse. How it is done:
An experiment was performed in a facility approved by the Association for Laboratory Animal Care Assessment and Accreditation in accordance with the animal policy approved by Busan National University. B6SJL-Tg (SOD1^G93A) mice were purchased from Jackson Laboratory (Stock No: 002726). All mice were maintained under temperature and light-controlled conditions (20˜23° C., light-dark cycle 12 hr-12 hr) and were provided with sterile food and water.
Vehicle (DMSO) and SLC-B036 (10 mg/kg, 20 mg/kg) were administered to 12-week-old or 14-week-old SOD1^G93A mice via intraperitoneal injection twice weekly for 6 weeks. Control mice were treated under the same conditions. For histological analysis, mice were sacrificed at 18 weeks. After dissection of mice, spinal cord was fixed with 4% paraformaldehyde for 48 hours according to basic tissue processing procedures, and embedded in a paraffin block. An embedded tissue (cervical region of the spinal cord) was cut into 5 μm with a Leica microtome, and transferred to an adhesive-coated slide (Marienfeld laboratory glassware, Germany). After deparaffinization and rehydration, the slide was stained with hematoxylin and eosin to determine the number of spinal nerves.
For behavioral experiment, grip strength was checked every 2 weeks using a grip strength meter. The mice were allowed to grasp a tension bar with their forelimbs, and then their tails were slowly pulled until they released the bar. To observe motility, respiration, and quadriplegia of the mice, image analysis was performed at the end of administration (18-20 weeks).

In data set [3] the test system is SOD1^G93A-Tg mice. The description is as above. The arrangement: species or system mouse. The settings on record: dosing from 14 weeks, observed at 17-weeks of age; FIGS. 7C and 8C.
In a further data set the test system is normal human fibroblasts. Description: Cell viability measurement (MTT), normal fibroblasts. The settings on record: for cytotoxic effect in normal fibroblasts: MTT, FIG. 4E, FIG. 9B. It is filed as cell-based. The method, then:
HEK293 cells were purchased from American Type Culture Collection (ATCC, Manassas, VA, USA) and maintained at 37° C. and 5% CO2 in DMEM liquid medium including 10% fetal bovine serum and 1% penicillin-streptomycin. SK—N—SH cells were purchased from Korean Cell Line Bank (KCLB, Seoul, South Korea) and maintained in MEM medium including 10% fetal bovine serum, 1% antibiotic, 25 mM HEPES, and 300 mg/L L-Glu. Human fibroblasts (person) were purchased from Coriell Cell Repositories (New Jersey, USA) and maintained in EMEM including 15% FBS, 2 mM Glutamine, and 26 mM HEPES without antibiotics. Thapsigargin (ER calcium scavenger: CAS 67526-95-8) was purchased from Calbiochem (Darmstadt, Germany). CoCl2 (hypoxia-inducer: C8661) was purchased from Sigma Aldrich (St, Louis, Mo, USA).
To check cells viability, the cells were reacted with 0.5 mg/ml MTT solution (475989; Merck, Darmstadt, Germany) at 37° C. for 4 hours. After removing residual solution and washing with PBS, precipitate was dissolved in 200 μl DMSO, and quantified by measuring absorbance at 540 nm.

The target of a further data set is SOD1 (Homo sapiens, UniProt P00441). Description: Western blot / native gel analysis of SOD1 aggregation. It is filed as cell-based. The method, then:
Using RIPA buffer (50 mM Tris-Cl, pH 7.5, 150 mM NaCl, 1% NP-40, 0.1% SDS and […]) for SDS-PAGE and lysis buffer (50 mM Tris-Cl, pH 7.5, 150 mM NaCl, 0.3% NP-40) for Native-PAGE, proteins were extracted from cells. Samples were separated by the SDS-PAGE or the Native-PAGE and transferred to PVDF membrane. Blotted membrane was blocked with TBST buffer including 3% skim milk for 1 hour, and reacted with specific antibodies. The reacted antibodies were detected by ECL and X-ray film exposure. Antibodies used in the present disclosure are as follows: pan-SOD1 (GTX100554) was purchased from Genetex (California, USA). Misfolded SOD1-specific antibody (B8H10) was purchased from MediMabs (Montreal, Canada). Actin (sc-1616), GST (sc-138), and GFP (Green fluorescent protein; sc-8036) were purchased from Santa Cruz biotechnology (Santa Cruz, CA, USA). TDP-43 antibody (10782-2-AP) was purchased from Proteintech (Rosemont, IL, USA). Anti-FLAG (Sigma; F3165) was purchased from Sigma Aldrich (St, Louis, Mo, USA), and HRP-conjugated goat anti-mouse, goat anti-rabbit, and mouse anti-goat antibodies (Pierce, Thermo Fisher Scientific, Inc., Rockford, IL, USA) were used as secondary antibodies.
GFP-SOD1 (WT, G85R, G93A), non-tagged SOD1 (WT, A4V, G37R, G85R, G93A) and tdTomato-TDP43 expression vectors were purchased from Addgene (Cambridge, MA, USA). Transfection was performed using Jet-PEI reagent (JetPEI; Polyplus transfection, New York, NY, USA) according to the manufacturer's protocol. Briefly, vectors were mixed with JetPEI reagent in 150 mM NaCl buffer, and then mixture was reacted for 15 minutes. The mixture was added to cells in serum-free medium and reacted for 4 hours. After reaction, the cells were replaced with a culture medium supplemented with 10% FBS.

“Also recorded” adds a separate entry of the source.

SOD1, sequence (P00441 2-154): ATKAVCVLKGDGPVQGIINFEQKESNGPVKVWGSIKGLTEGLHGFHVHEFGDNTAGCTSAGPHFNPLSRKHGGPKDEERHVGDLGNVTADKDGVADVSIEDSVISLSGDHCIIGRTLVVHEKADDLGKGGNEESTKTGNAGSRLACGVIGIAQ
T1 sequence (P00441 whole entry G94A): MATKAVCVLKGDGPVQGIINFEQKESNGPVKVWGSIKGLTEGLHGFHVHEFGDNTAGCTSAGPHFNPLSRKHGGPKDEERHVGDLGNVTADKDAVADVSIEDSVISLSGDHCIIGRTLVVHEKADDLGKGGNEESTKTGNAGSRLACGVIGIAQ

With `COc1cc(/C=C/C(=O)O[C@H]2Cc3cc4ccc(=O)oc4cc3OC2(C)C)ccc1O` [PRG-A-01, (S)-8,8-dimethyl-2-oxo-7,8-dihydro-2H,6H-pyrano[3,2-g]chromen-7-yl (E)-3-(4-hydroxy-3-methoxyphenyl) acrylate], in data set [1], the “time to disappearance in body / blood” value was ≤ 30 min. For the same molecule, on SOD1-G93A, the “recognition of mutant SOD1 by misfolding-specific antibody” value is recorded as “inhibits misfolding of mutant SOD1; also recorded: antibody specific for misfolding did not recognize mutant SOD1”. For the same molecule, in the data set on SOD1^G93A-Tg mice [2] (20 mg/kg more effective than 10 mg/kg, FIGS. 8A and 8B), the “dose dependence of effect on grip strength” value is reported as “dose-dependent effect”. Moreover, in the data set with SOD1^G93A-Tg mice [2] (FIGS. 11A and 11B, summary statements), the “effects in ALS model mice” value was “protective effect against muscle weakness and movement disorder”. Further, the lifespan extension with SOD1^G93A-Tg mice [2] (Kaplan-Meier survival, FIG. 8D) is 10 days. The In vivo result with SOD1^G93A-Tg mice [2] (Table 1, ALS model mice) is reported as “Effect ○”. Further, in the data set on SOD1^G93A-Tg mice [2] (i.p. twice a week, administration from 12 weeks of age, grip strength, FIG. 7B), the “muscle strength compared to wild-type mice” value is given as “about 70%”. The “viability of cervical spinal nerves, histological analysis” value in the data set with SOD1^G93A-Tg mice [2] (spinal cord, H&E, FIG. 7D) was “intraspinal nerves were maintained and high”. In the data set on SOD1^G93A-Tg mice [2] (starting at 14 weeks of age, forelimb grip strength, FIGS. 8A and 8B), the “muscle function, late treatment” value is “good effect on muscle function”. The “motor capacity, behavioral observation” value in the data set on SOD1^G93A-Tg mice [3] is recorded as “still had motor capacity”. Besides, the “cytotoxic effect in normal fibroblasts” value with normal human fibroblasts is recorded as “not cytotoxic”; in the data set on normal human fibroblasts (listed as SLC-B036) it was “did not exhibit cytotoxic effect”. The “Toxicity (MTT)” value in the data set on normal human fibroblasts (Table 1, cell type not given, neurons (FIG. 9A) and normal fibroblasts (FIG. 9B)) is reported as “No”. Moreover, the “SOD1 aggregation and TDP43 aggregation, native gel analysis” value at SOD1 (TDP-43 overexpression, FIG. 5B) was “reduced; also recorded: decreased”. On SOD1 (glutaraldehyde cross-linking, FIG. 5C), the “multimer bands of SOD1 and TDP-43, cross-linking experiment” value is “blocks multimer formation of SOD1; also recorded: weakened”.
